Assay results as given in patent US9440957B2, “Compounds and compositions for modulating EGFR Activity” (Novartis AG, priority 2012, dated 2016).
Where two headings read alike, the source gives them in different places.

Assays:
[1] = molecular target: human EGFR L858R/T790M (NIH/3T3 cells) (Homo sapiens, UniProt P00533, L858R/T790M); assay: EGFR target modulation in engineered NIH/3T3 cell lines (phospho-EGFR Y1068 AlphaLISA), EGFR L858R/T790M; type: cell-based; details: engineered NIH/3T3 cells, read-out: NIH3T3 IC50 (μM) EGFR (L858R/T790M)
Chain of human EGFR L858R/T790M (NIH/3T3 cells) (P00533 25-1210 T790M/L858R): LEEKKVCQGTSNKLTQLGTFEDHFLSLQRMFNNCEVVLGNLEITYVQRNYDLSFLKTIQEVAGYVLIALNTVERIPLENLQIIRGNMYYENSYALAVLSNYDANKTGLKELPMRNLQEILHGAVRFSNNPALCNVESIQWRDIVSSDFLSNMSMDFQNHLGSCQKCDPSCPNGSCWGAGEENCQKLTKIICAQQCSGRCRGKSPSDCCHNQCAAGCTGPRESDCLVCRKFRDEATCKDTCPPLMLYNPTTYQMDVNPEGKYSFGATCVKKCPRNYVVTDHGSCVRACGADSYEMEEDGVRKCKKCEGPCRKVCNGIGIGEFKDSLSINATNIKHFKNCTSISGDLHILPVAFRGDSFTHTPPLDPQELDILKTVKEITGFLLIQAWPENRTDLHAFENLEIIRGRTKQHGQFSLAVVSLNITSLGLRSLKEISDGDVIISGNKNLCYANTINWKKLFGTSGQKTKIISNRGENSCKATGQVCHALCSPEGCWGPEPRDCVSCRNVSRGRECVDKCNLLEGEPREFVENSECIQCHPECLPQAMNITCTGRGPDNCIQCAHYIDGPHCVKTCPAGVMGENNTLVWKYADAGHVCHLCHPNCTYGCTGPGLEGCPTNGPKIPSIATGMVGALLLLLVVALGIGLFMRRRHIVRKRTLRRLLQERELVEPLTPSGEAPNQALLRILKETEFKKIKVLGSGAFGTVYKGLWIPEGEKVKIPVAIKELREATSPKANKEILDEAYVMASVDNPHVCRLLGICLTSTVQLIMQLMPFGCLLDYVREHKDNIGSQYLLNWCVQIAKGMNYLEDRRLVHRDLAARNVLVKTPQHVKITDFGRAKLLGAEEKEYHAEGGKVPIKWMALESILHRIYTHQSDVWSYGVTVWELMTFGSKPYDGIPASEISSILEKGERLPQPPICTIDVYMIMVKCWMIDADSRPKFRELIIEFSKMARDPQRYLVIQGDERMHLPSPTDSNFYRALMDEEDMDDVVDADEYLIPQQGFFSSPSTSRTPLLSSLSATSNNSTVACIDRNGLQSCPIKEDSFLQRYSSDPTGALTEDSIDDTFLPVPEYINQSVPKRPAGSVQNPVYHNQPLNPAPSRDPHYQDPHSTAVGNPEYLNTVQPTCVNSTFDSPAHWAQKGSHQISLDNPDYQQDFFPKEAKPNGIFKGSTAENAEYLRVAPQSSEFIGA
Protocol: (§1) EGFR Target Modulation in Engineered NIH/3T3 Cell Lines Tissue Culture.
(§2) The cells were harvested with 0.05% Trypsin/EDTA (Hyclone #SH30236.01), re-suspended in 5% FBS/DMEM Pen/Strep without Puromycin and plated at 9,000 cells per well in 50 μl of media in a 384-well black plate with clear bottoms (Greiner #789068G). The cells were allowed to incubate overnight in a 37° C., 5% CO2 humidified tissue culture incubator. A 12-point test compound curve was prepared by serial diluting a 10 μM stock 1:3 in DMSO in a 384-well compound plate (Greiner #789201L). The serial diluted compounds were transferred to the plate containing cells by using a 50 nl Pin Head device (Perkin Elmer) and the cells were placed back in the incubator for 3 hours. Only the EGFR WT-expressing cells were induced with 50 ng/ml EGF (Preprotech #AF-100-15) for 5 minutes before lysis. […] The plates were shaken at 4° C. for 5 minutes with foil top at maximum speed. […] The plates were sealed with a foil top and frozen at −80° C. and thawed when needed.
(§3) The frozen aliquots were thawed and briefly centrifuged. All antibodies and beads were diluted in 1× AlphaLISA HiBlock Buffer (PE #AL004C). […] Goat anti-total EGFR (R&D Systems #AF231) was added and allowed to equilibrate for 1 hour at room temperature at 1 nM final concentration.
(§4) With these parameters, the IC50's for each compound in each cell line was calculated using non-linear curve fitting analysis.

[2] = molecular target: human EGFR L858R (NIH/3T3 cells) (Homo sapiens, UniProt P00533, L858R); assay: EGFR target modulation in engineered NIH/3T3 cell lines (phospho-EGFR Y1068 AlphaLISA), EGFR L858R; type: cell-based; details: engineered NIH/3T3 cells, read-out: NIH3T3 IC50 (μM) EGFR (L858R)
Chain of human EGFR L858R (NIH/3T3 cells) (P00533 25-1210 L858R): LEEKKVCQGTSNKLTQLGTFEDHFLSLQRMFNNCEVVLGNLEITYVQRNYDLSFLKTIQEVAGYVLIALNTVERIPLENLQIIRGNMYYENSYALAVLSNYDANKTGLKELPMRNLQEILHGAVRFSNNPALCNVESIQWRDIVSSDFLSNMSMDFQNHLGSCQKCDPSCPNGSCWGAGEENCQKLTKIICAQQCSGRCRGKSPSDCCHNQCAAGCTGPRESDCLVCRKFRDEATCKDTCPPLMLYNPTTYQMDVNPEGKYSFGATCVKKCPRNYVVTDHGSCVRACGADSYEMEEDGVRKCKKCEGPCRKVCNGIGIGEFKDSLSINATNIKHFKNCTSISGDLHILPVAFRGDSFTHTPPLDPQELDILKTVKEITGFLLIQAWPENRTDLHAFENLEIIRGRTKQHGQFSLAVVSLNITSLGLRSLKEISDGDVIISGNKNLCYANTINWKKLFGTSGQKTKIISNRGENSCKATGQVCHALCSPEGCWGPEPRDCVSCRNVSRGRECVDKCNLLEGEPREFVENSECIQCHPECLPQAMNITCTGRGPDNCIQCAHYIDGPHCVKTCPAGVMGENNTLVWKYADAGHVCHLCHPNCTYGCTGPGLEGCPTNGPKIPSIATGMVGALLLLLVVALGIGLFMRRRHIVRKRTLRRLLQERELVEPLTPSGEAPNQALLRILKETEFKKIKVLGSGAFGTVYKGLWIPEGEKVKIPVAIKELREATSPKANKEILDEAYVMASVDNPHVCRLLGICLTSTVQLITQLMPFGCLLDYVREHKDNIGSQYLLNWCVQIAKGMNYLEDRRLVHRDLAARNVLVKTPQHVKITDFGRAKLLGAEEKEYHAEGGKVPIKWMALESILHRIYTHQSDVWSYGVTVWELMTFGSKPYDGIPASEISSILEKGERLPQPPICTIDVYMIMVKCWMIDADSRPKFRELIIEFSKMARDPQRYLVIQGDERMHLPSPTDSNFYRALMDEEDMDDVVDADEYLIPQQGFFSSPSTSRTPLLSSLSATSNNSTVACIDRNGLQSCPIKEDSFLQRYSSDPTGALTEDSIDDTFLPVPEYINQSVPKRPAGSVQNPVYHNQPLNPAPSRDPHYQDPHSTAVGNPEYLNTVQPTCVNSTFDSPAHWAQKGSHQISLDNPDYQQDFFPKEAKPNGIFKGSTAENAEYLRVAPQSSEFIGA
Protocol: as §1, §2, §3, §4

[3] = molecular target: T1, EGFR(L858R/T790M) (Homo sapiens, UniProt P00533, L858R/T790M); assay: EGFR biochemical assay (HTRF), IC50 determinations
T1 construct: purchased from Carna (GST-a.a. 669-1210)
T1 sequence (P00533 669-1210 T790M/L858R): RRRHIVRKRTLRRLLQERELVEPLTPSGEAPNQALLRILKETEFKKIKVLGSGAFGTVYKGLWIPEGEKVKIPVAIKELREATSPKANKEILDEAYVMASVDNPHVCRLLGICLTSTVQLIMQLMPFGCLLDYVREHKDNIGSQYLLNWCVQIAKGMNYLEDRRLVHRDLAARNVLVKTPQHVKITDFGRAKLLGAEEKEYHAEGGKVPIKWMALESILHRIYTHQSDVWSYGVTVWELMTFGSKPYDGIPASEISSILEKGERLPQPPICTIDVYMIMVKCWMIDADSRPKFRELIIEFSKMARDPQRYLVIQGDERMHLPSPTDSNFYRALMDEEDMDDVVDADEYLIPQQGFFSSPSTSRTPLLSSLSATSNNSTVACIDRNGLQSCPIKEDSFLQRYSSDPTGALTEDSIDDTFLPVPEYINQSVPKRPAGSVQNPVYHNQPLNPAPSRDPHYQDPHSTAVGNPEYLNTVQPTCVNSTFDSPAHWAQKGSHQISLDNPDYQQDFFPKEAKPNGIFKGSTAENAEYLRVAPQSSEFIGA
Protocol: All EGFR biochemical assays were carried out by HTRF method. […] The substrate peptide Biotin-TK-peptide was purchased from Cis-Bio. […] All reactions were carried out at room temperature in white ProxiPlate™ 384-well Plus plates (PerkinElmer) and were quenched with 5 μL of 0.2 M EDTA at 60 min. Five L of the detection reagents (2.5 ng PT66K and 0.05 μg SAXL per well) were added, the plates were incubated at room temperature for 1 h and then read in EnVision reader. […] For no-preincubation condition, the compounds were added to the assay solution containing ATP and peptide, and the reaction was initiated by addition of enzyme. For pre-incubation conditions, the compounds were added to the assay solution containing enzyme and peptide, and pre-incubated at room temperature for desired period of time, then the reaction was initiated by addition of ATP.

[4] = molecular target: human EGFR WT (NIH/3T3 cells, EGF-induced) (Homo sapiens, UniProt P00533); assay: EGFR target modulation in engineered NIH/3T3 cell lines (phospho-EGFR Y1068 AlphaLISA), EGFR WT; type: cell-based; details: engineered NIH/3T3 cells, read-out: NIH3T3 IC50 (μM) EGFR (WT)
Chain of human EGFR WT (NIH/3T3 cells, EGF-induced) (P00533 25-1210): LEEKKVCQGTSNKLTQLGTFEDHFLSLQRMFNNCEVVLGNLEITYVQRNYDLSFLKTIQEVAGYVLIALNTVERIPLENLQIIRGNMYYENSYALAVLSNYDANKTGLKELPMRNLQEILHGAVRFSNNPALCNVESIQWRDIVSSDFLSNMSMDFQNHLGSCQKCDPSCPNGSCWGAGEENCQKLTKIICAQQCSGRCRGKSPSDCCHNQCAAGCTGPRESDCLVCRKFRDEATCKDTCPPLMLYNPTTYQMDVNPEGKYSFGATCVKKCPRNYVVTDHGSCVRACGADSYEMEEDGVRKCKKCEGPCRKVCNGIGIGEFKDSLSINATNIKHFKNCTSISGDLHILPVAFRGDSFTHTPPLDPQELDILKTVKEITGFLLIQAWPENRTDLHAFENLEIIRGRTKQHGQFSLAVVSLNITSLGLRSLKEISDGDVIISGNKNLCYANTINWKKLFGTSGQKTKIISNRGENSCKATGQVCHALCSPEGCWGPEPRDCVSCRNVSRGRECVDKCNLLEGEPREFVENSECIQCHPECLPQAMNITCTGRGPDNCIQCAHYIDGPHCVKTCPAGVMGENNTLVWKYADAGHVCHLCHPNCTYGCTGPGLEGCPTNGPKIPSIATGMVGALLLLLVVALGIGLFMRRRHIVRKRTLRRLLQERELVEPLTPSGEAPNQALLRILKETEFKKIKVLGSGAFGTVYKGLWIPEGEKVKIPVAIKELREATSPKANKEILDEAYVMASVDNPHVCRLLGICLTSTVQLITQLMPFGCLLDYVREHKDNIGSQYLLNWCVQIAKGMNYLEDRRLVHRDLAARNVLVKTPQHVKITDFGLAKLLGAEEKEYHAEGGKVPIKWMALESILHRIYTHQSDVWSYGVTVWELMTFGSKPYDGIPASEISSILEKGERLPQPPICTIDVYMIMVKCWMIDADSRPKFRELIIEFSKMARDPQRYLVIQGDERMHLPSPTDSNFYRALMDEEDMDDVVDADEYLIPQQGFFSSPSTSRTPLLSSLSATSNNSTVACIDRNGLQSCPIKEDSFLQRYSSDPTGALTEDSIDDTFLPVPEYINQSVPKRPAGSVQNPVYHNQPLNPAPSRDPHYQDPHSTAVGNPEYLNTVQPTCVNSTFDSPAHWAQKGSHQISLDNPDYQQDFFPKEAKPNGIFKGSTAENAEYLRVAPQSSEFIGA
Protocol: as §1, §2, §3, §4

[5] = EGFR (L858R/T790M) with 90 min pre-incubation, read-out: IC50 (μM) Column B
[6] = EGFR (L858R/T790M) with no pre-incubation, read-out: IC50 (μM) Column A

| IC50 [1] | IC50 [2] | IC50 [3, 5] | IC50 [3, 6] | IC50 [4] | SMILES |
| --- | --- | --- | --- | --- | --- |
| 0.01 µM | 0.39 µM | 0.006 µM | 0.66 µM | > 10 µM | C=CC(=O)N1CCCC(n2c(NC(=O)c3cccc(C(F)(F)F)c3)nc3c2CN(C(=O)OC)CC3)C1 (stereo not drawn) [Example 17-170] |
| 7.9 µM | > 10 µM | 0.044 µM | 1.55 µM | > 10 µM | C=CC(=O)N1CCCCC(n2c(NC(=O)c3ccccc3)nc3cccc(C(=O)NCC(=O)O)c32)C1 (stereo not drawn) [Example 17-137] |
| 0.001 µM | 0.004 µM | < 0.001 µM | 0.002 µM | 0.099 µM | C=CC(=O)N1CCCC[C@@H](n2c(NC(=O)c3ccccc3)nc3cc(CN(C)CCS(C)(=O)=O)cc(C)c32)C1 [Example 17-127] |
| 0.015 µM | 0.034 µM | < 0.001 µM | 0.026 µM | 0.86 µM | Cc1cccc2nc(NC(=O)c3ccccc3F)n(C3CCCCN(C(=O)/C=C/CN(C)C)C3)c12 (stereo not drawn) [Example 17-3] |
| 0.067 µM | 0.45 µM | 0.009 µM | 0.147 µM | > 10 µM | C=CC(=O)N1CCCCC(n2c(NC(=O)c3ccccc3)nc3cccc(-c4nc(C)no4)c32)C1 (stereo not drawn) [Example 17-138] |
| 0.003 µM | 0.015 µM | < 0.001 µM | 0.005 µM | 0.55 µM | Cc1cccc2nc(NC(=O)c3cccc(C(F)(F)F)c3)n([C@@H]3COCCN(C(=O)/C=C/CN(C)C)C3)c12 [Example 17-7] |
| 0.165 µM | 1.6 µM | 0.013 µM | 3.5 µM | > 10 µM | C=CC(=O)N1CCCCC(n2c(NC(=O)c3ccccc3)nc3cccc(C(=O)N4CCS(=O)(=O)CC4)c32)C1 (stereo not drawn) [Example 17-115] |
| 0.37 µM | 5.5 µM | 0.137 µM | 7 µM | > 10 µM | C=CC(=O)N1CCCC(n2c(NC(=O)c3cccc(C(F)(F)F)c3)nc3cnccc32)C1 (stereo not drawn) [Example 17-8] |
| 6.5 µM | > 10 µM | 0.03 µM | 1.76 µM | 8.2 µM | C=CC(=O)N1CCCCC(n2c(NC(=O)c3ccccc3)nc3cccc(C(=O)NCCC(=O)O)c32)C1 (stereo not drawn) [Example 17-136] |
| 0.002 µM | 0.012 µM | < 0.001 µM | 0.008 µM | 0.65 µM | C=CC(=O)N1CCOCC(n2c(NC(=O)c3cccc(C(F)(F)F)c3)nc3cccc(C)c32)C1 (single isomer, unassigned) [Example 21-7B] |
| 0.008 µM | 0.017 µM | 0.002 µM | 0.02 µM | 0.263 µM | Cc1cccc2nc(NC(=O)c3ccco3)n(C3CCCCN(C(=O)/C=C/CN(C)C)C3)c12 (stereo not drawn) [Example 17-56] |
| 0.002 µM | 0.002 µM | < 0.001 µM | 0.012 µM | 0.12 µM | C=CC(=O)N1CCCCC(n2c(NC(=O)c3cccc(C(F)(F)F)c3)nc3cccc(CN4CCCC4)c32)C1 (stereo not drawn) [Example 11, N-(1-(1-acryloyazepan-3-yl)-7-(pyrrolidin-1-ylmethyl)-1H-benzo[d]imidazol-2-yl)-3-(trifluoromethyl)benzamide] |
| 0.004 µM | 0.02 µM | < 0.001 µM | 0.014 µM | 2.48 µM | C=CC(=O)N1CCCC[C@@H](n2c(NC(=O)c3cccc(C(F)(F)F)c3)nc3cccc(Cl)c32)C1 [Example 17-18] |
| 0.003 µM | 0.015 µM | < 0.001 µM | 0.007 µM | 0.39 µM | COc1cccc(C(=O)Nc2nc3cccc(C)c3n2C2CCCCN(C(=O)/C=C/CN(C)C)C2)c1 (stereo not drawn) [Example 17-44] |
| 0.072 µM | 0.6 µM | 0.095 µM | 1.11 µM | > 2.77 µM | C=CC(=O)N1CCCC(n2c(NC(=O)c3cccc(C(F)(F)F)c3)nc3c2CCN(S(C)(=O)=O)C3)C1 (stereo not drawn) [Example 17-168] |
| 0.003 µM | < 0.001 µM | < 0.001 µM | 0.004 µM | 0.011 µM | Cc1cccc2nc(NC(=O)c3ccnc(C(C)(C)C)c3)n(C3CCCCN(C(=O)/C=C/CN(C)C)C3)c12 (stereo not drawn) [Example 17-61] |
| 0.02 µM | 0.023 µM | < 0.001 µM | 0.018 µM | 0.61 µM | Cc1cccc2nc(NC(=O)c3cc(Cl)nc(OC(F)(F)F)c3)n([C@@H]3CCCCN(C(=O)/C=C/CN(C)C)C3)c12 [Example 17-104] |
| 0.002 µM | 0.001 µM | < 0.001 µM | 0.002 µM | 0.047 µM | Cc1cccc2nc(NC(=O)c3ccnc(OC(F)(F)F)c3)n([C@@H]3CCCCN(C(=O)/C=C/CN(C)C)C3)c12 [Example 17-102] |
| 0.045 µM | 0.4 µM | 0.008 µM | 0.62 µM | > 10 µM | C=CC(=O)N1CCCCC(n2c(NC(=O)c3ccccc3)nc3cccc(C(=O)NCC(=O)OC)c32)C1 (stereo not drawn) [Example 17-135] |
| 0.046 µM | 0.313 µM | 0.014 µM | 0.233 µM | > 10 µM | CN(C)C/C=C/C(=O)N1CCC[C@@H](n2c(NC(=O)c3cccc(C(F)(F)F)c3)nc3cc(CO)ccc32)C1 [Example 17-143] |
| 0.043 µM | 0.305 µM | 0.005 µM | 0.147 µM | > 9.1 µM | C=CC(=O)N1CCCCC(n2c(NC(=O)c3ccccc3)nc3cccc(C(=O)NCCS(C)(=O)=O)c32)C1 (stereo not drawn) [Example 17-139] |
| 0.138 µM | 0.211 µM | 0.033 µM | 0.62 µM | 0.98 µM | Cc1ncc(C(=O)Nc2nc3cccc(C)c3n2C2CCCCN(C(=O)/C=C/CN(C)C)C2)s1 (single isomer, unassigned) [Example 21-8A] |
| 0.173 µM | 1.4 µM | 0.268 µM | 1.75 µM | 8.7 µM | C=CC(=O)N1CCCC(n2c(NC(=O)c3cccc(C(F)(F)F)c3)nc3c2CN(C(C)=O)CC3)C1 (stereo not drawn) [Example 17-172] |
| 6.3 µM | > 10 µM | 0.041 µM | 2.59 µM | > 10 µM | C=CC(=O)N1CCC[C@@H](n2c(NC(=O)c3cccc(C(F)(F)F)c3)nc3cc(C(=O)O)ccc32)C1 [Example 18, (R)-1-(1-acryloylpiperidin-3-yl)-2-(3-(trifluoromethyl)benzamido)-1H-benzo[d]imidazole-5-carboxylic acid] |
| 0.004 µM | 0.012 µM | < 0.001 µM | 0.008 µM | 0.44 µM | Cc1cccc(C(=O)Nc2nc3cccc(C)c3n2C2CCCCN(C(=O)/C=C/CN(C)C)C2)c1 (stereo not drawn) [Example 17-41] |
| 0.097 µM | 0.68 µM | 0.01 µM | 0.247 µM | 7.8 µM | C=CC(=O)N1CCOCC(n2c(NC(=O)c3ccccc3)nc3cccc(-c4nc(C)no4)c32)C1 (stereo not drawn) [Example 17-141] |
| 0.003 µM | 0.007 µM | < 0.001 µM | 0.014 µM | 1.65 µM | C=CC(=O)N1CCCCC(n2c(NC(=O)c3cccc(C(F)(F)F)c3)nc3cccc(C)c32)C1 (stereo not drawn) [Example 17-10] |
| 0.073 µM | 0.63 µM | 0.01 µM | 0.93 µM | > 10 µM | C=CC(=O)N1CCCCC(n2c(NC(=O)c3ccccc3)nc3cccc(C(=O)NCCC(=O)OC)c32)C1 (stereo not drawn) [Example 17-134] |
| 7.5 µM | 0.46 µM | 2.32 µM | 1.01 µM | 0.7 µM | Cc1cccc2nc(NC(=O)c3ccnnc3)n([C@@H]3CCCCN(C(=O)C4=COCCO4)C3)c12 [Example 17-89] |
| 0.14 µM | 4.8 µM | 0.128 µM | 2.62 µM | > 10 µM | C=CC(=O)N1CCCC(n2c(NC(=O)c3cccc(C(F)(F)F)c3)nc3c2CCN(C(=O)OC)C3)C1 (stereo not drawn) [Example 17-167] |
